In patent publication US10167262B2, “Herbicidal substituted 3-arylpyrazoles” (FMC CORPORATION, priority 2014, dated 2019):

Legend:
Experiment in all cases: Test A pre-/postemergence greenhouse herbicide test, visual injury rating 0-100
Assay type in all cases: in vivo
Conditions in all cases: 1000 g ai/ha
[1] = test system: pigweed (Amaranthus retroflexus)
From the text: (§1) Seeds of plant species selected from barnyardgrass (Echinochloa crus-galli), large (Lg) crabgrass (Digitaria sanguinalis), giant foxtail (Setaria faberii), morningglory (Ipomoea spp.), pigweed (Amaranthus retroflexus), velvetleaf (Abutilon theophrasti), wheat (Triticum aestivum), and corn (Zea mays) were planted into a blend of loam soil and sand and treated preemergence with a directed soil spray using test chemicals formulated in a non-phytotoxic solvent mixture which included a surfactant. At the same time these species were also treated with postemergence applications of test chemicals formulated in the same manner. Plants ranged in height from 2 to 10 cm and were in the one- to two-leaf stage for the postemergence treatment. Treated plants and untreated controls were maintained in a greenhouse for approximately 10 days, after which time all treated plants were compared to untreated controls and visually evaluated for injury. Plant response ratings, summarized in Table A, are based on a 0 to 100 scale where 0 is no effect and 100 is complete control. A dash (-) response means no test result.

[2] = test system: large (Lg) crabgrass (Digitaria sanguinalis)
From the text: as §1

[3] = test system: velvetleaf (Abutilon theophrasti)
From the text: as §1

[4] = test system: corn (Zea mays)
From the text: as §1

[5] = test system: wheat (Triticum aestivum)
From the text: as §1

[6] = test system: giant foxtail (Setaria faberii)
From the text: as §1

[7] = test system: morningglory (Ipomoea spp.)
From the text: as §1

[8] = test system: barnyardgrass (Echinochloa crus-galli)
From the text: as §1

Question: `O=C(c1ccccc1)c1cn(CC(F)F)nc1-c1cc(F)cc(Cl)c1` [Compound 40] was tested. Which “Plant response rating (0 to 100 scale), Pigweed” value (“Plant response rating … Pigweed” for short) ([1]; Postemergence) did it give?
Answer: Its value is 40.

Question: And the “Plant response rating … Pigweed” value ([1]; Preemergence)?
Answer: The value was 0.

Question: And the “Plant response rating (0 to 100 scale), Crabgrass, Large” value (shortened to “Plant response rating … Large”) ([2]; Postemergence)?
Answer: The value was 0.

Question: What about the “Plant response rating … Large” value ([2]; Preemergence) of the same compound?
Answer: The value was 0.

Question: And the “Plant response rating (0 to 100 scale), Velvetleaf” value (“Plant response rating … Velvetleaf” for short) ([3]; Postemergence)?
Answer: Its value is 0.

Question: And the “Plant response rating … Velvetleaf” value ([3]; Preemergence)?
Answer: The value was 0.

Question: What about the “Plant response rating (0 to 100 scale), Corn” value (from here on “Plant response rating … Corn”) ([4]; Postemergence) of the same compound?
Answer: Its value is 0.

Question: What about the “Plant response rating … Corn” value ([4]; Preemergence) of the same compound?
Answer: Its value is 0.

Question: And the “Plant response rating (0 to 100 scale), Wheat” value (“Plant response rating … Wheat” below) ([5]; Postemergence)?
Answer: The value was 0.

Question: And the “Plant response rating … Wheat” value ([5]; Preemergence)?
Answer: Its value is 0.

Question: And the “Plant response rating (0 to 100 scale), Foxtail, Giant” value (“Plant response rating … Giant” below) ([6]; Postemergence)?
Answer: The value was 0.

Question: What about the “Plant response rating … Giant” value ([6]; Preemergence) of the same compound?
Answer: The value was 0.

Question: And the “Plant response rating (0 to 100 scale), Morningglory” value (“Plant response rating … Morningglory” for short) ([7]; Postemergence)?
Answer: Its value is 0.

Question: And the “Plant response rating … Morningglory” value ([7]; Preemergence)?
Answer: Its value is 0.

Question: And the “Plant response rating (0 to 100 scale), Barnyardgrass” value (“Plant response rating … Barnyardgrass” below) ([8]; Postemergence)?
Answer: Its value is 0.

Question: And the “Plant response rating … Barnyardgrass” value ([8]; Preemergence)?
Answer: The value was 0.

Question: What does the source list for `ON=C(c1ccccc1)c1c[nH]nc1-c1cc(Br)cc(Br)c1` [Compound 49]?
Answer: Plant response rating (0 to 100 scale), Pigweed ([1]; Postemergence): 90; Plant response rating (0 to 100 scale), Pigweed ([1]; Preemergence): 80; Plant response rating (0 to 100 scale), Crabgrass, Large ([2]; Postemergence): 0; Plant response rating (0 to 100 scale), Crabgrass, Large ([2]; Preemergence): 0; Plant response rating (0 to 100 scale), Velvetleaf ([3]; Postemergence): 80; Plant response rating (0 to 100 scale), Velvetleaf ([3]; Preemergence): 0; Plant response rating (0 to 100 scale), Corn ([4]; Postemergence): 0; Plant response rating (0 to 100 scale), Corn ([4]; Preemergence): 0; Plant response rating (0 to 100 scale), Wheat ([5]; Postemergence): 0; Plant response rating (0 to 100 scale), Wheat ([5]; Preemergence): 0; Plant response rating (0 to 100 scale), Foxtail, Giant ([6]; Postemergence): 0; Plant response rating (0 to 100 scale), Foxtail, Giant ([6]; Preemergence): 10; Plant response rating (0 to 100 scale), Morningglory ([7]; Postemergence): 0; Plant response rating (0 to 100 scale), Morningglory ([7]; Preemergence): 0; Plant response rating (0 to 100 scale), Barnyardgrass ([8]; Postemergence): 0; Plant response rating (0 to 100 scale), Barnyardgrass ([8]; Preemergence): 0

Question: `Clc1cc(Cl)cc(-c2n[nH]cc2C(=NN2CCCCC2)c2ccccc2)c1` [Compound 51] was tested. Which “Plant response rating … Pigweed” value ([1]; Postemergence) did it give?
Answer: Its value is 90.

Question: And the “Plant response rating … Pigweed” value ([1]; Preemergence)?
Answer: Its value is 100.

Question: What about the “Plant response rating … Large” value ([2]; Postemergence) of the same compound?
Answer: The value was 0.

Question: What about the “Plant response rating … Large” value ([2]; Preemergence) of the same compound?
Answer: The value was 0.

Question: What about the “Plant response rating … Velvetleaf” value ([3]; Postemergence) of the same compound?
Answer: The value was 90.

Question: And the “Plant response rating … Velvetleaf” value ([3]; Preemergence)?
Answer: The value was 90.

Question: What about the “Plant response rating … Corn” value ([4]; Postemergence) of the same compound?
Answer: The value was 0.

Question: What about the “Plant response rating … Corn” value ([4]; Preemergence) of the same compound?
Answer: Its value is 0.

Question: What about the “Plant response rating … Wheat” value ([5]; Postemergence) of the same compound?
Answer: The value was 0.

Question: What about the “Plant response rating … Wheat” value ([5]; Preemergence) of the same compound?
Answer: Its value is 0.

Question: And the “Plant response rating … Giant” value ([6]; Postemergence)?
Answer: Its value is 0.

Question: What about the “Plant response rating … Giant” value ([6]; Preemergence) of the same compound?
Answer: The value was 0.

Question: What about the “Plant response rating … Morningglory” value ([7]; Postemergence) of the same compound?
Answer: Its value is 0.

Question: And the “Plant response rating … Morningglory” value ([7]; Preemergence)?
Answer: The value was 0.

Question: And the “Plant response rating … Barnyardgrass” value ([8]; Postemergence)?
Answer: The value was 0.

Question: What about the “Plant response rating … Barnyardgrass” value ([8]; Preemergence) of the same compound?
Answer: Its value is 0.

Question: What does the source list for `N#CN=C(c1ccccc1)c1c[nH]nc1-c1cc(Cl)cc(Cl)c1` [Compound 52]?
Answer: Plant response rating (0 to 100 scale), Pigweed ([1]; Postemergence): 90; Plant response rating (0 to 100 scale), Pigweed ([1]; Preemergence): 50; Plant response rating (0 to 100 scale), Crabgrass, Large ([2]; Postemergence): 0; Plant response rating (0 to 100 scale), Crabgrass, Large ([2]; Preemergence): 0; Plant response rating (0 to 100 scale), Velvetleaf ([3]; Postemergence): 100; Plant response rating (0 to 100 scale), Velvetleaf ([3]; Preemergence): 60; Plant response rating (0 to 100 scale), Corn ([4]; Postemergence): 0; Plant response rating (0 to 100 scale), Corn ([4]; Preemergence): 0; Plant response rating (0 to 100 scale), Wheat ([5]; Postemergence): 0; Plant response rating (0 to 100 scale), Wheat ([5]; Preemergence): 0; Plant response rating (0 to 100 scale), Foxtail, Giant ([6]; Postemergence): 0; Plant response rating (0 to 100 scale), Foxtail, Giant ([6]; Preemergence): 0; Plant response rating (0 to 100 scale), Morningglory ([7]; Postemergence): 0; Plant response rating (0 to 100 scale), Morningglory ([7]; Preemergence): 0; Plant response rating (0 to 100 scale), Barnyardgrass ([8]; Postemergence): 0; Plant response rating (0 to 100 scale), Barnyardgrass ([8]; Preemergence): 0
